From US20230286968A1, “ARYLOXAZOLO SPIRAL RING DERIVATIVES FOR THE TREATMENT AND PROPHYLAXIS OF HEPATITIS B VIRUS INFECTION” (Hoffmann-La Roche Inc., priority 2020, published 2023)

Tests used:
HBsAg = experiment: PHH natural infection assay, HBsAg (alphalisa); format: cell-based, HBV; details: Hepatitis B virus, Hepatocyte, read-out: HBsAg IC50, HBV-infected primary human hepatocytes, supernatant, alphalisa
Method in brief: (§1)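 Cryopreserved PHH plated 24 h, infected with HBV at 200 GE/cell plus 4% PEG8000 for 24 h, then sandwich-cultured 72 h with 0.25 mg/mL matrix gel. Compounds at varied concentrations applied twice at 72-h intervals. Supernatant HBsAg and HBeAg measured by AlphaLISA with specific antibodies.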

HBeAg = experiment: PHH natural infection assay, HBeAg (alphalisa); format: cell-based, HBV; details: Hepatitis B virus, Hepatocyte, read-out: HBeAg IC50, HBV-infected primary human hepatocytes, supernatant, alphalisa
Method in brief: as §1

[1] = Cytotoxicity in PHH natural infection assay (Cell Counting Kit-8); format: cell-based; details: HBV-infected primary human hepatocytes, CCK8
Method in brief: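 HBV-infected primary human hepatocytes (200 GE/cell, 4% PEG8000, 24 h), sandwich-cultured 72 h, then given compound-containing medium twice at 72 h intervals. Cytotoxicity read by CCK-8 at end of treatment.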

| SMILES | IC50 (HBsAg) [µM] | IC50 (HBeAg) [µM] | CC50 at 144 h [1] [µM] |
| --- | --- | --- | --- |
| CC(=O)NS(=O)(=O)c1cc(C(=O)NC2CC3(C2)CC(c2nc4cc(Cl)ccc4o2)C3)ccn1 (stereo not drawn) [Example 99, 2-(Acetylsulfamoyl)-N-[6-(5-chloro-1,3-benzoxazol-2-yl)spiro[3.3]heptan-2-yl]pyridine-4-carboxamide] | 2.1 | 1.33 | > 10 |
| CN(C)c1cc(C(=O)NC2CC3(C2)CC(c2nc4cc(Cl)ccc4o2)C3)ccn1 (stereo not drawn) [Example 11, N-[6-(5-chloro-1,3-benzoxazol-2-yl)spiro[3.3]heptan-2-yl]-2-(dimethylamino)pyridine-4-carboxamide] | 2.85 | 2.67 | > 100 |
| CN1CC(CC(=O)NC2CC3(C2)CC(c2nc4cc(Cl)ccc4o2)C3)CC1=O (stereo not drawn) [Example 35, N-[6-(5-chloro-1,3-benzoxazol-2-yl)spiro[3.3]heptan-2-yl]-2-(1-methyl-5-oxo-pyrrolidin-3-yl)acetamide] | 9.93 | 7.28 | > 10 |
| Cc1ccc(S(=O)(=O)N2CCC(CC(=O)NC3CC4(C3)CC(c3nc5cc(Cl)ccc5o3)C4)C2)cc1 (stereo not drawn) [Example 76, N-[6-(5-chloro-1,3-benzoxazol-2-yl)spiro[3.3]heptan-2-yl]-2-[1-(p-tolylsulfonyl)pyrrolidin-3-yl]acetamide] | 2.89 | 4 | > 10 |
| O=C(NC1CC2(C1)CC(c1nc3cc(Cl)ccc3o1)C2)c1ccncc1 (stereo not drawn) [Example 3, N-[6-(5-chloro-1,3-benzoxazol-2-yl)spiro[3.3]heptan-2-yl]pyridine-4-carboxamide] | 8.19 | 4.39 | > 100 |
| Cc1cnc(-c2cc(C(=O)NC3CC4(C3)CC(c3nc5cc(Cl)ccc5o3)C4)ccn2)s1 (stereo not drawn) [Example 15, N-[6-(5-chloro-1,3-benzoxazol-2-yl)spiro[3.3]heptan-2-yl]-2-(5-methylthiazol-2-yl)pyridine-4-carboxamide] | 2.25 | 1.47 | > 10 |
| O=C(NC1CC2(C1)CC(c1nc3cc(Cl)ccc3o1)C2)C1CNS(=O)(=O)C1 (stereo not drawn) [Example 43, N-[6-(5-chloro-1,3-benzoxazol-2-yl)spiro[3.3]heptan-2-yl]-1,1-dioxo-1,2-thiazolidine-4-carboxamide] | 9.04 | 3.81 | > 10 |
| CC(C)Oc1cc(C(=O)NC2CC3(C2)CC(c2nc4cc(Cl)ccc4o2)C3)ccn1 (stereo not drawn) [Example 20, N-[6-(5-chloro-1,3-benzoxazol-2-yl)spiro[3.3]heptan-2-yl]-2-isopropoxy-pyridine-4-carboxamide] | 1.92 | 1.26 | > 10 |
| Cc1cc(C(=O)NC2CC3(C2)CC(c2nc4cc(Cl)ccc4o2)C3)ccn1 (stereo not drawn) [Example 4, N-[6-(5-chloro-1,3-benzoxazol-2-yl)spiro[3.3]heptan-2-yl]-2-methyl-pyridine-4-carboxamide] | 5.51 | 4.59 | > 10 |
| O=C(NC1CC2(C1)CC(c1nc3cc(Cl)ccc3o1)C2)C1CC2(C1)CS(=O)(=O)C2 (stereo not drawn) [Example 52, N-[6-(5-chloro-1,3-benzoxazol-2-yl)spiro[3.3]heptan-2-yl]-2,2-dioxo-2-thiaspiro[3.3]heptane-6-carboxamide] | 9.99 | 5.71 | > 100 |
| NS(=O)(=O)c1cc(C(=O)NC2CC3(C2)CC(c2nc4cc(Cl)ccc4o2)C3)ccn1 (stereo not drawn) [Example 19, N-[6-(5-chloro-1,3-benzoxazol-2-yl)spiro[3.3]heptan-2-yl]-2-sulfamoyl-pyridine-4-carboxamide] | 2.25 | 1.24 | > 10 |
| Cc1c(Cl)cccc1N1CC(C(=O)NC2CC3(C2)CC(c2nc4cc(Cl)ccc4o2)C3)CC1=O (stereo not drawn) [Example 33, N-[6-(5-chloro-1,3-benzoxazol-2-yl)spiro[3.3]heptan-2-yl]-1-(3-chloro-2-methyl-phenyl)-5-oxo-pyrrolidine-3-carboxamide] | 3.24 | 3.07 | 42.8 |
